“And” between values parts separate entries of the source, which are not always exact repeats. Identical values can stand only once.
Key:
Assay type in all cases: physicochemical
[1] = pH controlled synthesis, free Gd versus synthesis time
Experimental: Here, Example 1A is modified by the addition of gadolinim oxide in its entirety at first and immediately after the introduction of the DOTA, and this procedure is used to produce batch A of Gd-DOTA. Batch B is produced using the following modified procedure.
• 1. Heat reactor to 95° C. • 2. Charge water with all of gadolinium oxide • 3. Stir (stir unless otherwise indicated, nominal rate 300 rpm) until the solution is clear • 4. Add sufficient DOTA to obtain a pH of 4 • 5. When pH is >5 charge sufficient DOTA to reach pH of 4 • 6. Stir until uniformly distributed in the water, and clear • 7. If pH<4, then go to step 9 • 8. Go to step 4 • 9. Divide remaining portion of DOTA into 5 parts • 10. Add 1 part of remaining DOTA • 11. Stir until uniformly distributed in the water, and clear • 12. If DOTA remains to be added go to step 10 • 13. Continue to cook for a total of 12 hours Results

[2] = Effect of solvent (ethanol) on intermediate formation and destabilization of stable complex; details: mixed with 10% v-v ethanol, ethanol evaporated 12 hrs
Experimental: At each time step, samples were mixed with 10% v-v ethanol. The ethanol was driven from the sample by evaporation (heating under vacuum) for 12 hrs. Free Gadolinium was determined by using the spectrometric xylenol orange technique described in previous studies.
At each time step, samples were mixed with 10% v-v ethanol. The ethanol was driven from the sample by evaporation (heating under vacuum) for 12 hrs. Free Gadolinium was determined by using the improved spectrometric xylenol orange technique described in previous studies.

[3] = Free gadolinium as a function of synthesis time, spectrometric xylenol orange; details: for Free Gd, titrated with meglumine to pH 7.0: after 32 hrs synthesis
Experimental: Once the reference solution is prepared, then product runs can be indexed against this standard. • 23. An improvement over earlier methods involves in-line or batch sample monitoring of metastable intermediate presence. For example, the monitoring can be by Fourier Transform Infrared Spectroscopy, High Performance Liquid Chromatography, Ultra High Performance Liquid Chromatography, or Trans-metalation reaction. The reactant can be titrated with a strong acid (0.1 M HCl) and the free Gd3+ ion quantified by the improved xylenol orange titration according to the present disclosure. The metastable intermediate will release free Gd3+ more quickly than fully complexed Gd-DOTA. The presence of multiple metastable intermediate forms can be detected by dynamic titration over the span of an hour or more, and calculating the Gd3+ ion as a function of time. • 24. In addition, the relative kinetic stability of a Gd-DOTA complex is accessed by exposing the solution to phosphate anions at physiological pH. Even chelates with very high thermodynamic stability constants will equilibrate to form some free chelate and non-chelated gadolinium. Since gadolinium phosphate is insoluble, any non-chelated gadolinium will precipitate as insoluble gadolinium phosphate, and the free Gd3+ ion can be quantified by weighing the precipitate. Verify Complex Formation • 25. Verify absence of free gadolinium using Xylenol orange • 26. If free gadolinium detected, add X DOTA, raise temperature to 95+1-2° C., stir for 1 hr and proceed to step 16 • 27. If not, proceed to step 23 Preparation of Gadoteric Acid Meglumine Solution • 28. Add 90% of the meglumine at 40-45° C. • 29. Sir 10 minutes • 30. Measure pH—in-line probe calibrated to 25° C. (USP) • 31. If pH is >7.5, discard • 32. If pH is between 7.0 and 7.5, then go to step 29 • 33. If pH<than 7.0, add 2% of the Meglumine, go to step 24 • 34. Stir for 1 hr at 40-45° C. • 35. Check solution is clear, if yes proceed to 31, if not repeat 29 Gadoteric Acid Meglumine Solution Filtration • 36. Cool the solution to 20-25° C. • 37. Filter the solution using the carbon filter • 38. Rinse the reactor with 20-25° C. water using ¼ V • 39. Pass rinse through the filter • 40. Repeat rinse steps 33 & 34 for a total of 2 rinses • 41. Place filtrate and rinses back in reactor • 42. Stir at 25-30° C. for 10 min • 43. Measure Free DOTA by HPLC • 44. If Free DOTA is 0.01-0.06% ww proceed to 42 • 45. If Free DOTA<0.01% ww, add 0.03% ww equivalent of DOTA • 46. Stir for ½ hr and go to step 38 • 47. Measure pH—in-line probe calibrated to 25° C. (USP) • 48. If pH is between 7.0 and 7.5, then go to step 45 • 49. If pH<7.0, add meglumine. Stir 10 min. Go to step 42. • 50. Stir ½ hr. • 51. Check solution is clear, if yes proceed to 47, if not repeat 45 Verify Purity • 52. Measure Purity by HPLC • 53. If individual impurity>0.05%, go to step 32 Final API Adjustments • 54. Measure Free DOTA by HPLC • 55. If Free DOTA>0.06% ww, repeat steps 32-42 • 56. If Free DOTA is 0.01-0.06% ww proceed to 55 • 57. If Free DOTA<0.01% ww, add 0.03% ww equivalent of DOTA • 58. Stir ½ hr • 59. Go to Step 49 • 60. Measure pH • 61. If pH is 7.0-7.5, then go to step 53 • 62. If pH<7.0, add Meglumine. Stir 10 min. Go to step 55 Final API Testing • 63. Perform full API testing: Gadolinium content; Meglumine Content; Assay; Water Content; Heavy Metals Free Gadolinium as a Function of Synthesis Time Using the Method of Example 1A.
Free Gadolinium was determined by using the spectrometric xylenol orange technique described in previous studies.
Free Gadolinium as a Function of Synthesis Time Using the Method of Example 1.
Free Gadolinium was determined by using the improved spectrometric xylenol orange technique described in previous studies.

[4] = Metastable intermediates as a function of reaction time
Experimental: • 1. Heat reactor to 25-30° C. • 2. Charge water with DOTA • 3. Begin stirring (stir unless otherwise indicated, nominal rate 300 rpm) • 4. Charge 10% of the DOTA • 5. Stir until uniformly distributed in the water • 6. If all the DOTA is charged, then go to step 8 • 7. Go to step 4 • 8. Stir 10 min Preparation of Gadolinium: DOTA Complex • 9. Charge 25% by weight of the Gadolinium oxide • 10. Stir until uniformly distributed • 11. If all the Gadolinium oxide is charged then go to step 13 • 12. Go to step 9 • 13. Stir 10 min • 14. Raise temperature to 95+/−2° C. • 15. Stir 3 hrs. • 16. Check clarity • 17. If not clear continue for 1 hr, go to step 16 (this step took about 12 hours) • 18. If clear, continue 1 hr and then cool to 40-45° C. • 19. If precipitate forms, heat to 95+/−2° C. and stir for 1 hr, go to step 16 Verify Gd-Dota is Free of Metastable Intermediates • 20. A standard metastable-free Gd-DOTA reference solution is obtained by taking 5 ml of reactant obtained from steps 1-19 and diluting to a 0.2 mM Gd-DOTA solution. One measures the metastable intermediate content after synthesis for 5, 10, 15, 20, 25, 30, and 35 hours, or until the concentration of the metastable intermediate asymptotes as close to zero as possible. • 21. […] The output from a copper vapor laser tuned to 578.2 nm (Oxford Lasers, Didcot, United Kingdom) is directed through the reactant and the excitation spectrum obtained at 578.2 nm. Baseline is established by directing the laser through the quartz vessel filled with distilled water.
Stoichiometric ratios of gadolinium oxide were reacted with DOTA according to the procedure outlined in Example 1. Measurements were taken (N=1) to conserve volume. The final measurement was performed 5 times.

[5] = Feasibility of excess DTPA, free Gd3+ by xylenol orange; details: stoichiometric DTPA, room temperature, 24 hours
Experimental: The metastable intermediate concentration is determined by Example 3, and associated methods described in the present application. A Gd-DOTA synthesis containing metastable intermediates is heated to 95° C. in the presence of a stoichiometric amount of DTPA sufficient to consume all the metastable intermediates. The presence of metastable intermediates can be measured as a function of time. The reaction is continued until a desired metastable intermediate content is obtained. Depending on the amount of free DOTA thus liberated, the free DOTA can be reacted with a positively charged resin, as is known in the art. Alternatively, the free DOTA may serve as a buffer against free Gd3+ formation, as is permitted in some drug formulations. Ten samples were prepared by adding stoichiometric amounts of DTPA to counter the excess Gd3+ and stored at room temperature for 24 hours. Samples were tested using the improved spectrometric xylenol orange method.

[6] = Feasibility of cation exchange (sodium polystyrene sulfonate), free Gd3+ by xylenol orange; details: stoichiometric sodium polystyrene sulfonate, room temperature, N = 5
Experimental: Feasibility of cation exchange as a method of making Gd-DOTA with low metastable intermediates
Using sodium polystyrene sulfonate, rather than the polymer described above.
Ten samples were stored at room temperature with a stoichiometric amount of sodium polystyrene sulfonate.
Samples were tested using the improved spectrometric xylenol orange method.

O=C([O-])CN1CCN(CC(=O)[O-])CCN(CC(=O)O)CCN(CC(=O)[O-])CC1.[Gd+3] [Batch A, Gd-DOTA]
Free Gd ([1]; synthesis time 4 hrs): 15,036 +/− 12.8 ppm | Free Gd ([1]; synthesis time 8 hrs): 4,947 +/− 9.9 ppm | Free Gd ([1]; synthesis time 12 hrs): 1,792 +/− 10.5 ppm

O=C([O-])CN1CCN(CC(=O)[O-])CCN(CC(=O)O)CCN(CC(=O)[O-])CC1.[Gd+3] [Example 1B, Gd-DOTA]
Free Gd ([2]; synthesis time 4 hrs): 71,830 ppm | Free Gd ([2]; synthesis time 8 hrs): 7,044 ppm | Free Gd ([2]; synthesis time 12 hrs): 2,146 ppm | Free Gd ([2]; synthesis time 16 hrs): 957 ppm | Free Gd ([2]; synthesis time 20 hrs): 401 ppm | Free Gd ([2]; synthesis time 24 hrs): 147 ppm | Free Gd ([2]; synthesis time 28 hrs): 92 ppm | Free Gd ([2]; synthesis time 32 hrs): 56 (compare to 0.77 without solvents) ppm | Free Gd, titrated with meglumine to pH 7.0 [3]: 0.77+/−0.92 ppm | Free Gd ([3]; synthesis time 4 hrs): 17,467 +/− 9.4 ppm | Free Gd ([3]; synthesis time 8 hrs): 3,448 +/− 8.9 ppm | Free Gd ([3]; synthesis time 12 hrs): 803 ppm and 803 +/− 8.1 ppm | Free Gd ([3]; synthesis time 16 hrs): 509 +/− 4.2 ppm | Free Gd ([3]; synthesis time 20 hrs): 63.6 +/− 9.7 ppm | Free Gd ([3]; synthesis time 24 hrs): 31.0 +/− 2.1 ppm | Free Gd ([3]; synthesis time 28 hrs): 1.2 +/− 0.72 ppm | Free Gd ([3]; synthesis time 32 hrs): 0.25 +/− 0.67 ppm

O=C([O-])CN1CCN(CC(=O)[O-])CCN(CC(=O)O)CCN(CC(=O)[O-])CC1.[Gd+3] [Example 5, Gd-DOTA]
Metastable Intermediates ([4]; 3 hours of reaction): 28,094 +/− 9.7 ppm | Metastable Intermediates ([4]; 8 hours of reaction): 3,853 +/− 12.4 ppm | Metastable Intermediates ([4]; 24 hours of reaction): 72 +/− 5.0 ppm | Metastable Intermediates ([4]; 32 hours of reaction): 0.8 +/− 1.3 ppm | Metastable Intermediates after titration with meglumine to pH 7.0 ([4]; after 32 hours of reaction, unit not given): 1.2 +/− 3.8

O=C([O-])CN1CCN(CC(=O)[O-])CCN(CC(=O)O)CCN(CC(=O)[O-])CC1.[Gd+3] [Batch B, Gd-DOTA]
Free Gd ([1]; synthesis time 4 hrs): 19,276 +/− 6.3 ppm | Free Gd ([1]; synthesis time 8 hrs): 2,793 +/− 7.1 ppm | Free Gd ([1]; synthesis time 12 hrs): 377 +/− 5.2 ppm

Gd-DOTA [Example 7]
Gd3+ after samples treated with DTPA, range (upper value, down to undetectable) [5]: ≤ 27.6 ppm | Gd3+ after samples treated with DTPA ([5]; N=5): 14.8+/−11.6 ppm

O=C([O-])CN1CCN(CC(=O)[O-])CCN(CC(=O)O)CCN(CC(=O)[O-])CC1.[Gd+3] [Example 1A, Gd-DOTA]
Free Gd ([2]; synthesis time 4 hrs): 71,830 ppm | Free Gd ([2]; synthesis time 8 hrs): 7,044 ppm | Free Gd ([2]; synthesis time 12 hrs): 2,146 ppm | Free Gd ([2]; synthesis time 16 hrs): 957 ppm | Free Gd ([2]; synthesis time 20 hrs): 401 ppm | Free Gd ([2]; synthesis time 24 hrs): 147 ppm | Free Gd ([2]; synthesis time 28 hrs): 92 ppm | Free Gd ([2]; synthesis time 32 hrs): 56 (compare to 0.77 without solvents) ppm | Free Gd, titrated with meglumine to pH 7.0 [3]: 0.77+/−0.92 ppm | Free Gd ([3]; synthesis time 4 hrs): 17,467 +/− 9.4 ppm | Free Gd ([3]; synthesis time 8 hrs): 3,448 +/− 8.9 ppm | Free Gd ([3]; synthesis time 12 hrs): 803 ppm and 803 +/− 8.1 ppm | Free Gd ([3]; synthesis time 16 hrs): 509 +/− 4.2 ppm | Free Gd ([3]; synthesis time 20 hrs): 63.6 +/− 9.7 ppm | Free Gd ([3]; synthesis time 24 hrs): 31.0 +/− 2.1 ppm | Free Gd ([3]; synthesis time 28 hrs): 1.2 +/− 0.72 ppm | Free Gd ([3]; synthesis time 32 hrs): 0.25 +/− 0.67 ppm

Gd-DOTA [Example 6]
Free Gd3+ after samples treated ([6]; 24 hrs): 685 +/− 9.4 | Free Gd3+ after samples treated ([6]; 48 hrs): 292 +/− 15.2 | Free Gd3+ after samples treated ([6]; 96 hrs): 8.9 +/− 8.5

— patent US12692278B2, “Synthesis methods and compositions of low intermediate and low dichelate intermediate contrast agents” (priority 2021, dated 2026)
